From PubChem BioAssay AID1648 (Sanford-Burnham Center for Chemical Genomics, 2009)
Activity calls are given as the source filed them. No rule for the calls is given here.

Target: Serine/threonine-protein kinase mTOR (Homo sapiens) (UniProt P42345)
Test: mTOR FRB domain ligand binding – biophysical, NMR (AID 1648)
Conditions: NMR binding to FRB domain, chemical shift

Serine/threonine-protein kinase mTOR (Homo sapiens), sequence (P42345 2015-2114): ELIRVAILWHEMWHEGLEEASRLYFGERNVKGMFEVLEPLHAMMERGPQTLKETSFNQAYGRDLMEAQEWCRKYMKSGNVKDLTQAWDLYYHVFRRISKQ

| Structure (SMILES) | Kd |
| --- | --- |
| Cc1nn2c(-c3ccco3)nnc2c2ccccc12 | > 4 mM (inactive) |
| CSc1ccc2nnc(-c3cccnc3)n2n1 | > 4 mM (inactive) |
| CC(=O)OC/C=C(\C)CC/C=C(\C)CC/C=C(\C)CC/C=C(\C)CC/C=C(\C)CC/C=C(\C)CC/C=C(\C)CC/C=C(\C)CCC=C(C)C | > 4 mM (inactive) |
| Cc1c(N=CN(C)C)c(=O)n(-c2ccccc2)n1C | > 4 mM (inactive) |
| O=C(O)CC(O)c1nc2ccccc2[nH]1 (stereo not drawn) | > 4 mM (inactive) |
| NC(=O)c1ccccc1NC(=O)C1CC1 | > 4 mM (inactive) |
| OC(CCl)c1ccc(-n2cncn2)cc1 (stereo not drawn) | > 4 mM (inactive) |
| COc1cc2c(cc1OC)[C@@H]1C(=O)c3ccc4oc(C(C)C)cc4c3O[C@@H]1CO2 | > 4 mM (inactive) |
| CN1CCC(N2CCN(C)CC2)CC1 | > 4 mM (inactive) |
| O=c1[nH]c2sc3c(c2c2ncnn12)CCCC3 | > 4 mM (inactive) |
| CNS(=O)(=O)c1cccs1 | > 4 mM (inactive) |
| CSc1nc(-c2ccccc2)ccc1C(N)=O | > 4 mM (inactive) |
| CS(=O)(=O)c1ccccc1C(=O)Nc1nccs1 | > 4 mM (inactive) |
| O=C(NCC1CCNCC1)c1ccccn1 | > 4 mM (inactive) |
| CC(=O)c1ccc(N2C(=O)C(C(C)C)NC2=S)cc1 (stereo not drawn) | > 4 mM (inactive) |
| CC[C@H](CCC(C)[C@H]1CCC2C3CCC4C[C@@H](O)CC[C@]4(C)C3CC[C@@]21C)C(C)C (stereo partly drawn) | > 4 mM (inactive) |
| O=C(O)c1ccc2c(c1)CCO2 | > 4 mM (inactive) |
| COc1cc(CNC(=O)CCCC/C=C/C(C)C)ccc1O | > 4 mM (inactive) |
| NC(=O)NCCCC(N)C(=O)O (stereo not drawn) | > 4 mM (inactive) |
| COC(=O)c1cc2ccccc2cn1 | > 4 mM (inactive) |
| COc1ccc([C@H]2COc3c(ccc(O)c3OC)C2)c(OC)c1O | > 4 mM (inactive) |

| Structure (SMILES) | Kd |
| --- | --- |
| O=C(Nc1nc2ccccc2s1)c1ccc(=O)[nH]n1 | > 4 mM (inactive) |
| Cc1ccc(F)cc1NC(=O)c1ccc2c(c1)OCO2 | > 4 mM (inactive) |
| O=c1ccc2c([nH]1)CCCC2 | > 4 mM (inactive) |
| Cc1cc(C(=O)NC2=NCCS2)cs1 | > 4 mM (inactive) |
| COc1c(OC)c2occc2c2oc(=O)ccc12 | > 4 mM (inactive) |
| Cc1nc(-c2cccc(C(=O)O)c2)cs1 | > 4 mM (inactive) |
| COC(=O)c1cccc(N)c1 | > 4 mM (inactive) |
| Cc1nc2ccc(NC(=O)N3CCOCC3)cc2s1 | > 4 mM (inactive) |
| OC[C@H]1O[C@@H](O[C@H]2[C@H](O)[C@@H](O)[C@@H](O)O[C@@H]2CO)[C@H](O)[C@@H](O)[C@@H]1O | > 4 mM (inactive) |
| O=c1[nH]cc(CN2CCOCC2)c(=O)[nH]1 | > 4 mM (inactive) |
| O=C(O)Cn1cc(C(=O)c2cccs2)c2ccccc21 | > 4 mM (inactive) |
| O=C(O)CNS(=O)(=O)c1cccs1 | > 4 mM (inactive) |
| O=C(c1ccncc1)N1CCN(C(=O)c2ccncc2)CC1 | > 4 mM (inactive) |
| O=c1sc2ccccc2n1CN1CCOCC1 | > 4 mM (inactive) |
| O=c1ccc2nc3ccccc3c(=O)n2[nH]1 | > 4 mM (inactive) |
| O=C1c2ccncc2C(=O)N1CNc1ccccn1 | > 4 mM (inactive) |
| COCc1cc(=O)oc2cc(N)ccc12 | > 4 mM (inactive) |
| CC(=O)O[C@H]1CC[C@@]2(C)C(CC[C@]3(C)C2CC=C2C4CC(C)(C)CC[C@]4(C)CC[C@]23C)C1(C)C (stereo partly drawn) | > 4 mM (inactive) |
| C/C(N)=C/C(=O)N1CCCCC1 | > 4 mM (inactive) |
| NC(=O)CC(=O)NC12CC3CC(CC(C3)C1)C2 | > 4 mM (inactive) |
| O=C(O)/C=C/c1ccc(O)c(O)c1 | > 4 mM (inactive) |

| Structure (SMILES) | Kd |
| --- | --- |
| O=C1C2C3C=CC(C3)C2C(=O)N1CCO (stereo not drawn) | > 4 mM (inactive) |
| COC(=O)C1=CO[C@@H](O[C@@H]2O[C@H](CO)[C@@H](O)[C@H](O)[C@H]2O)[C@@H]2[C@@H](C)[C@@H](O)C[C@H]12 | > 4 mM (inactive) |
| CC(=O)c1cccc(NC2=NCC(C)(C)S2)c1 | > 4 mM (inactive) |
| COc1c2occc2cc2ccc(=O)oc12 | > 4 mM (inactive) |
| Cn1ncc(C(=O)NC2CCCCC2)c1Cl | > 4 mM (inactive) |
| C=C[C@H]1CN2CC[C@H]1C[C@H]2[C@H](O)c1ccnc2ccccc12 | > 4 mM (inactive) |
| NC(=O)CN1CCCCCC1=O | > 4 mM (inactive) |
| O=c1n(-c2ccccc2)c(=O)n2n1CCCC2 | > 4 mM (inactive) |
| CC(=O)Oc1ccc2c(c1)c(C(C)=O)c(C)n2C | > 4 mM (inactive) |
| CN1C(=O)/C(=C\c2ccc[nH]2)SC1=S | > 4 mM (inactive) |
| C[C@H]1O[C@@H](O[C@H]2[C@@H](O)C[C@H](O[C@H]3[C@@H](O)C[C@H](O[C@H]4CC[C@]5(C)C6CC[C@]7(C)[C@@H](C8=CC(=O)OC8)CC[C@]7(O)C6CC[C@@H]5C4)O[C@@H]3C)O[C@@H]2C)C[C@H](O)[C@@H]1O (stereo partly drawn) | > 4 mM (inactive) |
| COc1ccc(/C=C2\SC(N)=NC2=O)cc1 | > 4 mM (inactive) |
| COc1cccc(-c2csc(NC(C)=O)n2)c1 | > 4 mM (inactive) |
| O=C(c1ccccc1)c1ccccc1C(=O)N1CCCC1 | > 4 mM (inactive) |
| Cc1ccc(C)n1NC(=O)c1cccs1 | > 4 mM (inactive) |
| O=C(Cn1cncn1)c1ccc(F)c(F)c1 | > 4 mM (inactive) |
| Cc1ccc(C(=O)n2cnnc2N)cc1C | > 4 mM (inactive) |
| COc1ccccc1NC(=O)NC(N)=O | > 4 mM (inactive) |
| CCCOn1nnnc1-c1ccccc1 | > 4 mM (inactive) |
| O=c1c2ccccc2oc2ccc(O)cc12 | > 4 mM (inactive) |
| Nc1ccc(C(=O)NCC2CCCO2)cc1 (stereo not drawn) | > 4 mM (inactive) |

| Structure (SMILES) | Kd |
| --- | --- |
| O=c1c(-c2ccc(O)cc2)coc2cc(O)ccc12 | > 4 mM (inactive) |
| CC1(C)Cc2nc(N3CCOCC3)c(C#N)cc2CO1 | > 4 mM (inactive) |
| O=C(NCCO)c1cc2ccccc2cc1O | > 4 mM (inactive) |
| CC(=O)O[C@H]1CC[C@@]2(C)C(=CCC3C2CC[C@@]2(C)C3CC[C@@H]2C(C)CCCC(C)C)C1 (stereo partly drawn) | > 4 mM (inactive) |
| Nc1nnc(-c2ccncc2)s1 | > 4 mM (inactive) |
| Cc1ccc(C)n1-c1ccc(C(=O)N2CCOCC2)cc1 | > 4 mM (inactive) |
| CC(=O)C1CCC2C3CCC4C[C@H](O)CCC4(C)C3C[C@H](O)C12C (stereo partly drawn) | > 4 mM (inactive) |
| Cc1ccc(NC(=O)c2ccccc2)s1 | > 4 mM (inactive) |
| Clc1ccccc1OCCn1ccnc1 | > 4 mM (inactive) |
| NC12CC3CC(C1)CC(CC(=O)O)(C3)C2 | > 4 mM (inactive) |
| Cc1cc2ncn(S(=O)(=O)N3CCOCC3)c2cc1C | > 4 mM (inactive) |
| CC(=O)c1cnc2nc(C(F)(F)F)nn2c1C | > 4 mM (inactive) |
| COc1cc(N)ncn1 | > 4 mM (inactive) |
| CN1CCN(CC(=O)N2CCc3ccccc32)CC1 | > 4 mM (inactive) |
| COc1ccc2nc(N)sc2n1 | > 4 mM (inactive) |
| O=[n+]1cc(C2=CC=CCC2)n([O-])c2c1CCCCC2 | > 4 mM (inactive) |
| NC(CC(=O)O)c1ccccc1 (stereo not drawn) | > 4 mM (inactive) |
| OCc1ccc(-n2ccnc2)cc1 | > 4 mM (inactive) |
| Cc1nnc2n(c1=O)N=C(c1ccccc1)CS2 | > 4 mM (inactive) |
| O=c1cc(-c2ccccc2)oc2cc(O)cc(O)c12 | > 4 mM (inactive) |
